Measured values from patent US8637484B2, “Modulation of growth hormone receptor expression and insulin-like growth factor expression” (Antisense Therapeutic Limited, priority 2003, dated 2014).

Assays:
[1] = test system: growth hormone receptor mRNA; assay: Growth hormone receptor mRNA levels in liver, two-week mouse study; type: in vivo; conditions: 30 mg/kg
Experimental: (§1) A two-week study was done in similar fashion to the one-week study in Example 18, this time using ISIS 227446 at doses of 3, 5, 10, 20 and 30 mg/kg. The mismatch control was given at the same doses. Mice were treated with antisense compound or saline every other day for 14 days.
Growth hormone receptor mRNA levels in liver tissue samples from treated and untreated mice in this two-week study were assayed. The growth hormone receptor antisense inhibitor ISIS 227446 reduced growth hormone receptor mRNA levels in liver after the two-week study by 50% at the 20 mg/kg dose relative to saline control (p<0.001). The 30 mg/kg dose of ISIS 227446 yielded a 53% decrease in growth hormone receptor mRNA (p<0.0001). The mismatch control oligonucleotide ISIS 261303 (SEQ ID NO: 267), at 30 mg/kg, reduced growth hormone receptor mRNA levels by approximately 3%.

growth hormone receptor = assay: [125I] hGH specific binding assay on liver microsomal membranes of treated mice; type: in vivo, mouse
Experimental: Specific binding assays were carried out with liver tissue using iodinated human growth hormone [^125I] hGH.
Microsomal membrane preparations were obtained as follows. 400 mg of tissue powder was homogenized in cold homogenizing buffer (50 mM Tris/HCl, 250 mM sucrose, pH 7.4). This was centrifuged at 2000 rpm for 10 min at 3° C. and the supernatant was saved. This was centrifuged again at 15,000 rpm for 20 min. Pellets were resuspended in 0.5 ml of RRA buffer with inhibitor (50 mM Tris, 20 mM MgC12, pH 7.4). Microsomal preparation samples were stored at −80° C. until the specific binding assay.
The [^125I] hGH specific binding assay was done as follows. Four glass tubes were set up for each sample, two for (−), two for (+). Different sample and solutions were added in each tube as follows (i) 0.2 ml RRA buffer (50 mM Tris, 20 mM MgCl2, 0.1% BSA, pH 7.4); (ii) 0.1 ml membrane (1/2 or 1/4 dilution); (iii) 0.1 ml bGH (10 μg/ml) for the (+) tube or 0.1 ml RRA buffer for the (−) tube; and (iv) 0.1 ml [^125I]-hGH tracer.
Samples were incubated at 4° C. with shaking overnight. The reaction was stopped with 2.5 ml of cold RRA, and the sample centrifuged at 2800 rpm for 25 min at 4° C. Supernatant was aspirated and pellets counted using the γ-counter. The specific binding capacity was calculated as: CPM(−)-CPM(+) Protein content of the microsomal samples was determined by the BCA protein assay.

serum IGF-I [2] = assay: Serum IGF-I, two-week mouse study; type: in vivo; conditions: for % decrease relative to 3 mg/kg ISIS 261303: day 14
Experimental: as §1
P-values were determined by t-test.

[3] = test system: serum insulin-like growth factor-I; assay: Serum IGF-I by radioimmunoassay, 1 week pilot study in Balb/C(a) mice; type: in vivo, mouse; conditions: for % IGF-I reduction: 30 mg/kg once every 2 days, serum IGF-I at day 7 compared to saline control at day 7
Experimental: Forty male Balb/C(a) mice weighing 9 to 10 g were placed into cages, 4 animals per cage, and allowed to assimilate into their environment with new littermates ˜1 week prior (Day −7) to the commencement of 1 week study. Mice of this age would be at their maximum growth rate. Their body weights were measured and recorded every second day during this period. When mice weighed 11 g (day −2), a blood sample was collected under anesthesia as described below, and a serum IGF-I assay was performed to determine pre-treatment values and to aid in the assigning of mice to treatment groups in order to reduce animal variability. To obtain the blood sample, the animals were anaesthetized with pentobarbital (50 mg/kg i.p.) and non-fasting blood samples collected exactly 5 minutes later from the retrobulbar plexus through heparinized capillary tubes under light ether anesthesia. The 40 animals were placed into five groups with each group having a similar weight average and similar IGF-I average concentration for the trial.
Animals (n=8/group) were designated to the following five treatment groups:
Saline, antisense, mismatch control and octreotide samples were prepared, and coded for blinding. Animals were given a subcutaneous dose of saline every second day, and mismatch control or antisense with administration on days 0, 2, 4, 6. Animals were given twice daily doses of 25 μg octreotide. Animals were housed 4 per cage, for the duration of one week. They had access to a pre-determined quantity of standard mouse food and water at all times throughout the experiment. They were housed in a quiet, temperature- and humidity-maintained environment for the entirety of the study. At day 0 and before treatment on each day or second day, the animals had their body weight and food intake measured, enabling the correct dose of agent to be administered. The animals were monitored closely for any changes in fur, skin, eye, locomotion or other changes in behavior. No problems were observed. Every second day from day −7 to day 7 body weight and food intake were measured.
On day 7, one day after the last dose of antisense, and/or after the last octreotide dose, the animals were anaesthetized with pentobarbital (50 mg/kg i.p.) and non-fasting blood samples collected exactly 5 minutes later from the retrobulbar plexus through heparinized capillary tubes under light ether anesthesia (as on day −7 and 0).
At day −2 and day 7, serum IGF-I measurement was done by radioimmunoassay. Serum IGF-I level is the most widely used measure of growth hormone biological activity in human therapy. It is used to measure the efficacy of growth hormone antagonist treatments like Trovert, which block cells' responsiveness to excess growth hormone, and dopamine agonists and octreotide somatostatin […] drugs that block growth hormone secretion from the pituitary.

[4] = test system: growth hormone receptor mRNA; assay: Growth hormone receptor mRNA levels in liver, additional 1 week study; type: in vivo, mouse; conditions: 50 mg/kg, one-week study
Experimental: (§2) Male Balb/C(a) mice were prepared and grouped for analysis as in Example 18 above.
(§3) Animals were treated and serum IGF-I levels were measured as in Example 18 above. Briefly, for the one-week study, mice were given a subcutaneous dose of saline every second day, and mismatch control or antisense with administration on days 0, 2, 4, 6. On day 7, the animals were anaesthetized with pentobarbital and non-fasting blood samples collected exactly 5 minutes later from the retrobulbar plexus through heparinized capillary tubes under light ether anesthesia. Serum IGF-I measurement was done by radioimmunoassay at day 7.
Growth hormone receptor mRNA levels in liver tissue samples from treated and untreated mice in this one-week study were assayed. The growth hormone receptor antisense inhibitor ISIS 227446 reduced growth hormone receptor mRNA levels in liver after the one-week study by 72% at the 50 mg/kg dose, relative to saline control (p<0.0001). The 30 mg/kg dose of ISIS 227446 yielded a 50% decrease in growth hormone receptor mRNA (p<0.0001). The unrelated control oligonucleotide ISIS 260120, at 50 mg/kg, reduced growth hormone receptor mRNA levels by approximately 15% (p>0.05).

serum IGF-I [5] = assay: Serum IGF-I, additional 1 week study in mice; type: in vivo, mouse; conditions: 50 mg/kg once every 2 days, day 7
Experimental: as §2
Animals (n=10/group) were designated to the following treatment groups:
as §3

[6] = test system: serum insulin-like growth factor-I; assay: Serum IGF-I by radioimmunoassay, 1 week pilot study in Balb/C(a) mice; type: in vivo, mouse
serum IGF-I [7] = conditions: high doses, 12 week study, cited from earlier work
[8] = test system: serum insulin-like growth factor-I; conditions: patients with acromegaly; cited from earlier work
sIGF-1 = conditions: cited from earlier work
[9] = 30 mg/kg every second day for one week, liver membranes

ISIS 261303: negative control oligonucleotide, SEQ ID NO: 267, 8-base mismatch to ISIS 227446 (AGAGAGCTACCTAACTAACA; chemistry not given here) [reference compound]
decrease in growth hormone receptor mRNA in liver [1]: approximately 3%
Specific binding/mg protein (cpm) ¼ dilution (growth hormone receptor; [9]): 8431 ± 2663 cpm
Specific binding/mg protein (cpm) ½ dilution (growth hormone receptor; [9]): 7090 ± 1877 cpm
growth hormone receptor levels (growth hormone binding activity), % of control (saline) group (growth hormone receptor; 30 mg/kg sc every second day for one week): no effect
Day 14 serum IGF-I (serum IGF-I [2]; 3 mg/kg every other day for 14 days): 184 ng/mL
% decrease relative to 3 mg/kg ISIS 261303 (serum IGF-I [2]; 3 mg/kg): 0%
Day 14 serum IGF-I (serum IGF-I [2]; 5 mg/kg every other day for 14 days): 186 ng/mL
% decrease relative to 3 mg/kg ISIS 261303 (serum IGF-I [2]; 5 mg/kg): 0%
Day 14 serum IGF-I (serum IGF-I [2]; 10 mg/kg every other day for 14 days): 174 ng/mL
% decrease relative to 3 mg/kg ISIS 261303 (serum IGF-I [2]; 10 mg/kg): 5%
Day 14 serum IGF-I (serum IGF-I [2]; 20 mg/kg every other day for 14 days): 164 ng/mL
% decrease relative to 3 mg/kg ISIS 261303 (serum IGF-I [2]; 20 mg/kg): 11%
Day 14 serum IGF-I (serum IGF-I [2]; 30 mg/kg every other day for 14 days): 130 ng/mL
% decrease relative to 3 mg/kg ISIS 261303 (serum IGF-I [2]; 30 mg/kg): 29%
% IGF-I reduction [3]: 21%
% IGF-I reduction ([3]; listed as Mismatch): 20.98%
IGF-I (ng/ml) Day 7 ([3]; 30 mg/kg sc once every 2 days (days 0, 2, 4, 6)): 81.1 ± 19.16 ng/mL
IGF-I (ng/ml) Day −2 ([3]; pre-treatment value of the group given 30 mg/kg sc once every 2 days): 184.87 ± 55.6 ng/mL

TTACCGTATGGTTCCTCACT (chemistry not given here) [ISIS 260120, unrelated negative control oligonucleotide, reference compound]
reduction of growth hormone receptor mRNA levels in liver relative to saline control [4]: approximately 15%
reduction of serum IGF-I relative to saline control (serum IGF-I [5]): 17%
effect on serum IGF-I levels seen with the mismatch oligonucleotide (serum IGF-I [2]; 30 mg/kg, 2 weeks): not observed

octreotide
IGF-I (ng/ml) Day 7 ([6]; 25 μg twice per day): 114.34 ± 41.36 ng/mL
IGF-I (ng/ml) Day −2 ([6]; pre-treatment value of the group given 25 μg/kg twice per day): 199.72 ± 44.47 ng/mL
reduction of serum IGF-I (serum IGF-I [7]; 11 patients): 45%
reduction of glomerular filtration rate relative to placebo (serum IGF-I [7]): 22-33%
patients in whom treatment is effective [8]: 60-65%
reduction of sIGF-1 (sIGF-1; 5000 μg/day sc, maximally tolerated doses, 15 month study): 51%
ocular disease (sIGF-1; vs placebo of 42%): 27%
effect on serum IGF-I levels at day 7 ([3]; 2 doses per day at 25 μg each): no effect
